What was measured:
surinam grass = experiment: Test B pre/postemergence surinam grass; assay type: in vivo, Brachiaria decumbens
Outline: (§1)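 Test chemicals in a non-phytotoxic solvent mixture with surfactant were sprayed preemergence onto planted seeds and postemergence onto plants 2 to 18 cm tall (1- to 4-leaf stage). After twelve to sixteen days in a greenhouse, injury was visually rated against untreated controls from 0 (no effect) to 10 (complete control).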

sugar beet = experiment: Test B pre/postemergence sugar beet; assay type: in vivo, Beta vulgaris
Outline: as §1

bamyardgrass = experiment: Test B flood test barnyardgrass; assay type: in vivo, Echinochloa crus-galli
Outline: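 Plants were grown to the 2-leaf stage before treatment with test chemical, then held in a greenhouse for twelve to sixteen days. Injury was visually rated against untreated controls on a 0–10 scale, where 0 is no effect and 10 is complete control.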

blackgrass = experiment: Test B pre/postemergence blackgrass; assay type: in vivo, Alopecurus myosuroides
Outline: as §1

[1] = Preemergence, Rate 62 g/ha, scale of 0 to 10 where 0 is no effect and 10 is complete control
[2] = Preemergence, Rate 250 g/ha, scale of 0 to 10 where 0 is no effect and 10 is complete control
[3] = Preemergence, Rate 500 g/ha, scale of 0 to 10 where 0 is no effect and 10 is complete control
[4] = Rate 62 g/ha, Postemergence, scale 0 to 10 (0 no effect, 10 complete control)
[5] = Rate 125 g/ha, Postemergence, scale of 0 to 10 where 0 is no effect and 10 is complete control
[6] = Rate 250 g/ha, Postemergence, scale of 0 to 10 where 0 is no effect and 10 is complete control
[7] = Rate 500 g/ha, Postemergence, scale 0 to 10, 0 no effect, 10 complete control
[8] = Rate 62 g/ha, headed Pre-emergence (flood test species), scale 0 to 10 (0 no effect, 10 complete control)
[9] = Rate 125 g/ha, Pre-emergence, flood test species, scale 0 to 10 where 0 is no effect and 10 is complete control
[10] = Rate 250 g/ha, Pre-emergence, flood-test species, scale 0 to 10, 0 is no effect, 10 is complete control
[11] = Rate 500 g/ha, Pre-emergence, flood test species, scale 0 to 10 (0 no effect, 10 complete control)

| SMILES | B. signalgrass plant response rating (surinam grass; [1]) | B. signalgrass plant response rating (0 to 10 scale, 0 is no effect, 10 is complete control) (surinam grass; Preemergence, Rate 125 g/ha) | B. signalgrass plant response rating (surinam grass; [2]) | B. signalgrass plant response rating (surinam grass; [3]) | B. signalgrass plant response rating (surinam grass; [4]) | B. signalgrass plant response rating (surinam grass; [5]) | Plant response rating, B. signalgrass (surinam grass; [6]) | B. signalgrass plant response rating (surinam grass; [7]) | Sugarbeets plant response rating (sugar beet; [1]) | Sugarbeets plant response rating (0 to 10 scale) (sugar beet; Preemergence, Rate 125 g/ha) | Sugarbeets plant response rating (sugar beet; [2]) | Sugarbeets plant response rating (sugar beet; [3]) | Sugarbeets plant response rating (sugar beet; [4]) | Sugarbeets plant response rating (sugar beet; [5]) | Plant response rating, Sugarbeets (sugar beet; [6]) | Barnyardgrass plant response rating (bamyardgrass; [8]) | Barnyardgrass plant response rating (bamyardgrass; [9]) | Barnyardgrass plant response rating (bamyardgrass; [10]) | Barnyardgrass plant response rating (bamyardgrass; [11]) | Blackgrass plant response rating (blackgrass; [1]) | other results |
| --- | --- | --- | --- | --- | --- | --- | --- | --- | --- | --- | --- | --- | --- | --- | --- | --- | --- | --- | --- | --- | --- |
| CCc1cccc(CC)c1-n1c(=O)on(C(=O)N(c2ccc(F)cc2)C(C)C)c1=O [Compound 304] | 0 | 0 | 0 | 0 | 0 | 0 | 0 | 0 | 0 | 1 | 6 | 6 | 0 | 0 | 0 | 0 | 0 | 0 | 4 | 0 | Blackgrass plant response rating (0 to 10 scale) (blackgrass; Preemergence, Rate 125 g/ha): 0; Blackgrass plant response rating (blackgrass; [2]): 0; Blackgrass plant response rating (blackgrass; [3]): 0; Blackgrass plant response rating (blackgrass; [4]): 0; Blackgrass plant response rating (blackgrass; [5]): 0; Plant response rating, Blackgrass (blackgrass; [6]): 0; Blackgrass plant response rating (blackgrass; [7]): 4 |
| CC(C)N(C(=O)n1oc(=O)n(Cc2ccccc2-c2ccccc2)c1=O)c1ccc(F)cc1 [Compound 313] | 0 | 0 | 0 | 0 | 0 | 0 | 0 | 0 | 0 | 0 | 0 | 0 | 0 | 0 | 0 | 0 | 0 | 0 | 0 | 0 | Blackgrass plant response rating (0 to 10 scale) (blackgrass; Preemergence, Rate 125 g/ha): 0; Blackgrass plant response rating (blackgrass; [2]): 0; Blackgrass plant response rating (blackgrass; [3]): 0; Blackgrass plant response rating (blackgrass; [4]): 0; Blackgrass plant response rating (blackgrass; [5]): 0; Plant response rating, Blackgrass (blackgrass; [6]): 0; Blackgrass plant response rating (blackgrass; [7]): 0 |

— patent US6737383B1, “Herbicidal oxadiazolidines” (priority 1999, dated 2004)
